Measurements reported in ChEMBL document CHEMBL1201862, “PubChem BioAssay data set” (2004).
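Interpolation was linear, between the two tested concentrations surrounding the appropriate level; five concentrations were tested over 48 hours in 96-well plates. Abbreviation: GI50, concentration required for 50% inhibition of growth.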 Active and inactive are the calls of the source. Cut-off read from the data, not from the text of the source: active = GI50 up to about 1.1 µM and inactive = higher.

Key:
Test in all cases: growth of human tumour cells (NCI), 48 h
A549 = test system: A549
ACHN = test system: ACHN
CAKI-1 = test system: CAKI-1
COLO 205 = test system: COLO 205
DU-145 = test system: DU-145
HCC 2998 = test system: HCC 2998
HT-29 = test system: HT-29
Hs-578T = test system: Hs-578T
K562 = test system: K562
KM12 = test system: KM12
MCF7 = test system: MCF7
Malme-3M = test system: Malme-3M
NCI-H522 = test system: NCI-H522
RXF 393 = test system: RXF 393
SNB-19 = test system: SNB-19
SR = test system: SR
T47D = test system: T47D
TK-10 = test system: TK-10
UO-31 = test system: UO-31

Measured: GI50

CCOC(=O)Cc1nn2c(=O)cc(C)nc2s1
inactive: A549 > 100 µM | ACHN > 100 µM | CAKI-1 > 100 µM | COLO 205 > 100 µM | DU-145 > 100 µM | HCC 2998 > 100 µM | HT-29 > 100 µM | Hs-578T > 100 µM | K562 > 100 µM | KM12 > 100 µM | MCF7 > 100 µM | Malme-3M > 100 µM | NCI-H522 > 100 µM | RXF 393 > 100 µM | SNB-19 > 100 µM | SR > 100 µM | T47D > 100 µM | TK-10 > 100 µM | UO-31 > 100 µM

Cc1nc(C)c(N2CCN(C(=O)NC(CCC(=O)O)C(=O)O)CC2)c(O)n1 (centres undefined)
inactive: A549 > 100 µM | ACHN > 100 µM | CAKI-1 > 100 µM | COLO 205 > 100 µM | DU-145 > 100 µM | HCC 2998 > 100 µM | HT-29 > 100 µM | Hs-578T > 100 µM | K562 > 100 µM | KM12 > 100 µM | MCF7 > 100 µM | Malme-3M > 100 µM | NCI-H522 > 100 µM | RXF 393 > 100 µM | SNB-19 > 100 µM | SR > 100 µM | T47D > 100 µM | TK-10 > 100 µM | UO-31 > 100 µM

CC1=NN(c2nc(N)nc(C(C#N)C(=O)c3cc4c(cc3Cl)Sc3nccn3S4(=O)=O)n2)C(C)(C)C1 (centres undefined)
inactive: A549 61.4 µM | ACHN 13.4 µM | CAKI-1 13.5 µM | COLO 205 24.9 µM | DU-145 16.8 µM | HCC 2998 8.41 µM | HT-29 34.3 µM | Hs-578T 32.2 µM | K562 34.9 µM | KM12 20 µM | MCF7 14.3 µM | Malme-3M 14.3 µM | NCI-H522 18.6 µM | RXF 393 27.3 µM | SNB-19 55.6 µM | SR 4.4 µM | T47D 14.6 µM | TK-10 17.9 µM | UO-31 30.1 µM

N#CC1(O)CCCCCCCCCCC1
inactive: A549 > 100 µM | ACHN > 100 µM | CAKI-1 > 100 µM | COLO 205 > 100 µM | DU-145 > 100 µM | HCC 2998 > 100 µM | HT-29 > 100 µM | Hs-578T > 100 µM | K562 > 100 µM | KM12 > 100 µM | MCF7 > 100 µM | Malme-3M > 100 µM | NCI-H522 48.8 µM | RXF 393 > 100 µM | SNB-19 > 100 µM | SR > 100 µM | T47D > 100 µM | TK-10 > 100 µM | UO-31 > 100 µM

CCn1c(SCc2nnc(Nc3ccccc3)s2)nc2ccccc2c1=O
inactive: A549 3.67 µM | ACHN 2.85 µM | CAKI-1 3.04 µM | COLO 205 16.1 µM | DU-145 9.1 µM | HCC 2998 6.68 µM | HT-29 2.95 µM | Hs-578T 2.39 µM | K562 19.8 µM | KM12 2.38 µM | MCF7 9.93 µM | Malme-3M 1.46 µM | NCI-H522 2.09 µM | RXF 393 4.04 µM | SNB-19 3.5 µM | SR 23.7 µM | T47D 5.57 µM | TK-10 3.45 µM | UO-31 3.08 µM

CC(=O)OCC1OC(n2c(C#N)cc(=O)[nH]c2=O)CC1OC(C)=O (centres undefined)
inactive: A549 > 100 µM | ACHN > 100 µM | CAKI-1 > 100 µM | COLO 205 > 100 µM | DU-145 > 100 µM | HCC 2998 > 10 µM | HT-29 > 100 µM | Hs-578T > 100 µM | K562 > 100 µM | KM12 > 100 µM | MCF7 > 100 µM | Malme-3M > 100 µM | NCI-H522 > 100 µM | RXF 393 > 100 µM | SNB-19 > 100 µM | SR > 100 µM | T47D > 100 µM | TK-10 > 100 µM | UO-31 > 100 µM

O=C(O)c1ccccc1CC(Cc1ccc2c(c1)CCC2)C(=O)O (centres undefined)
inactive: A549 > 100 µM | ACHN > 100 µM | CAKI-1 > 100 µM | COLO 205 > 100 µM | DU-145 > 100 µM | HCC 2998 > 100 µM | HT-29 > 100 µM | Hs-578T > 100 µM | K562 > 100 µM | KM12 > 100 µM | MCF7 > 100 µM | Malme-3M > 100 µM | NCI-H522 > 100 µM | RXF 393 > 100 µM | SNB-19 > 100 µM | SR 8.07 µM | T47D > 100 µM | TK-10 > 100 µM | UO-31 > 100 µM

CN(C)/C=N/c1ccc2nonc2c1
inactive: A549 > 100 µM | ACHN > 100 µM | CAKI-1 > 100 µM | COLO 205 > 100 µM | DU-145 > 100 µM | HCC 2998 > 100 µM | HT-29 > 100 µM | Hs-578T > 100 µM | K562 > 100 µM | KM12 > 100 µM | MCF7 > 100 µM | Malme-3M > 100 µM | NCI-H522 > 100 µM | RXF 393 > 100 µM | SNB-19 > 100 µM | SR > 100 µM | T47D > 100 µM | TK-10 > 100 µM | UO-31 > 100 µM

C=C1OC2OC(C)C(NC(=O)OCC(Cl)(Cl)Cl)C(OC(C)=O)C2O1 (centres undefined)
inactive: A549 > 100 µM | ACHN > 100 µM | CAKI-1 > 100 µM | COLO 205 > 100 µM | DU-145 > 100 µM | HCC 2998 > 100 µM | HT-29 > 100 µM | Hs-578T > 100 µM | K562 > 100 µM | KM12 > 100 µM | MCF7 > 100 µM | Malme-3M > 100 µM | NCI-H522 > 100 µM | RXF 393 > 100 µM | SNB-19 > 100 µM | SR > 100 µM | T47D > 100 µM | TK-10 > 100 µM | UO-31 > 100 µM

CN(C)CCCC1c2ccccc2Oc2ccc(C(F)(F)F)cc21 (centres undefined)
inactive: A549 14.9 µM | ACHN 16.7 µM | CAKI-1 12.9 µM | COLO 205 4.65 µM | DU-145 17.2 µM | HCC 2998 1.63 µM | HT-29 5.28 µM | Hs-578T 14.5 µM | K562 5.9 µM | KM12 14.2 µM | MCF7 12.7 µM | Malme-3M 2.79 µM | NCI-H522 14.3 µM | RXF 393 7.19 µM | SNB-19 16.7 µM | SR 7.28 µM | T47D 14.6 µM | TK-10 15.6 µM | UO-31 1.82 µM

O=C(Nc1nn(C(=O)c2cccnc2)c(=O)s1)c1ccc(Cl)cc1
inactive: A549 99.8 µM | ACHN > 100 µM | CAKI-1 40.6 µM | COLO 205 40.6 µM | DU-145 85.9 µM | HCC 2998 > 100 µM | HT-29 > 100 µM | Hs-578T 29.2 µM | K562 47.5 µM | KM12 61.7 µM | MCF7 77.3 µM | Malme-3M 31.6 µM | NCI-H522 21.7 µM | RXF 393 15.6 µM | SNB-19 > 100 µM | SR > 100 µM | T47D 27 µM | TK-10 76.6 µM | UO-31 1.8 µM

CC1(c2nc3ccccc3[nH]2)CCC(C(=O)O)C(C)(C)O1 (centres undefined)
inactive: A549 > 100 µM | ACHN > 100 µM | CAKI-1 > 100 µM | COLO 205 > 100 µM | DU-145 > 100 µM | HCC 2998 > 100 µM | HT-29 > 100 µM | Hs-578T > 100 µM | K562 > 100 µM | KM12 26.5 µM | MCF7 > 100 µM | Malme-3M > 100 µM | NCI-H522 > 100 µM | RXF 393 > 100 µM | SNB-19 > 100 µM | SR > 100 µM | T47D > 100 µM | TK-10 > 100 µM | UO-31 > 100 µM

Cc1cn2c(/C=C3/C(=O)Nc4cccc(Cl)c43)c(Cl)nc2s1
inactive: A549 27 µM | ACHN 20.6 µM | CAKI-1 > 100 µM | DU-145 > 100 µM | HCC 2998 6.34 µM | HT-29 > 100 µM | Hs-578T 4.13 µM | K562 > 100 µM | KM12 > 100 µM | MCF7 > 100 µM | Malme-3M > 100 µM | NCI-H522 > 100 µM | RXF 393 25.4 µM | SNB-19 40.4 µM | SR > 100 µM | T47D > 100 µM | TK-10 17.9 µM | UO-31 > 100 µM

CC1OC2=N[C@@H]1C(=O)N[C@@H](C(C)C)C1=N[C@H](C(=O)N[C@@H](C(C)C)C3=N[C@H](C(=O)N[C@@H](C(C)C)C4=N[C@H](C(=O)N[C@H]2C(C)C)C(C)O4)C(C)O3)C(C)O1 (some centres undefined)
inactive: ACHN > 10 µM | CAKI-1 > 10 µM | COLO 205 > 10 µM | DU-145 > 10 µM | HCC 2998 > 10 µM | HT-29 > 10 µM | Hs-578T > 10 µM | K562 > 10 µM | KM12 > 10 µM | MCF7 > 10 µM | Malme-3M > 10 µM | NCI-H522 > 10 µM | RXF 393 > 10 µM | SNB-19 > 10 µM | SR > 10 µM | T47D > 10 µM | TK-10 > 10 µM | UO-31 > 10 µM
